Laboratory results from the NIST ThermoML archive (doi:10.1021/je060415l).
Values joined by “and” are separate entries in the source; they are usually repeats but may differ in a detail not shown here. Identical values can stand only once.

Experiment: isobaric coefficient of expansion
Conditions: Liquid, expansion method

CO [methanol]
Conditions	isobaric coefficient of expansion
196.17 K, 590 kPa	0.00112 1/K
196.97 K, 80030 kPa	0.000894 1/K
198.11 K, 590 kPa	0.00112 1/K
199.3 K, 80030 kPa	0.000894 1/K
200.13 K, 590 kPa	0.00112 1/K
201.61 K, 80030 kPa	0.000891 1/K
202.14 K, 590 kPa	0.00112 1/K and 0.00113 1/K
203.94 K, 80030 kPa	0.000891 1/K
204.09 K, 590 kPa	0.00112 1/K
206.06 K, 590 kPa	0.00112 1/K
206.3 K, 80030 kPa	0.000888 1/K
208.02 K, 590 kPa	0.00112 1/K
208.16 K, 20010 kPa	0.00105 1/K
208.68 K, 80030 kPa	0.000886 1/K
209.97 K, 590 kPa	0.00112 1/K and 0.00114 1/K
210.16 K, 20010 kPa	0.00104 1/K
210.17 K, 45100 kPa	0.000966 1/K
211.07 K, 80030 kPa	0.000883 1/K
211.93 K, 590 kPa	0.00111 1/K and 0.00112 1/K
212.17 K, 20010 kPa	0.00104 1/K
212.17 K, 45100 kPa	0.000968 1/K
213.46 K, 80030 kPa	0.00088 1/K
213.91 K, 590 kPa	0.00112 1/K and 0.00111 1/K
214.17 K, 20010 kPa	0.00104 1/K
214.17 K, 45100 kPa	0.000963 1/K
215.9 K, 590 kPa	0.00112 1/K
216 K, 80030 kPa	0.000874 1/K
216.17 K, 20010 kPa	0.00104 1/K
216.17 K, 45100 kPa	0.000964 1/K
217.87 K, 590 kPa	0.00112 1/K
218.17 K, 20010 kPa	0.00104 1/K
218.18 K, 45100 kPa	0.000965 1/K
218.19 K, 590 kPa	0.00111 1/K
219.84 K, 590 kPa	0.00112 1/K
220.16 K, 590 kPa	0.00113 1/K
220.18 K, 20010 kPa	0.00104 1/K
220.18 K, 45100 kPa	0.000962 1/K
220.38 K, 80030 kPa	0.000872 1/K
221.82 K, 590 kPa	0.00111 1/K
222.14 K, 590 kPa	0.00111 1/K
222.17 K, 20010 kPa	0.00104 1/K
222.18 K, 45100 kPa	0.000966 1/K
222.8 K, 80030 kPa	0.000867 1/K
223.82 K, 590 kPa	0.00112 1/K
224.15 K, 590 kPa	0.00111 1/K
224.17 K, 20010 kPa	0.00104 1/K
224.17 K, 45100 kPa	0.00096 1/K
225.25 K, 80030 kPa	0.000863 1/K
225.86 K, 590 kPa	0.00111 1/K
226.15 K, 590 kPa	0.00112 1/K
226.16 K, 45100 kPa	0.000962 1/K
226.17 K, 20010 kPa	0.00104 1/K
227.72 K, 80030 kPa	0.000861 1/K
227.95 K, 590 kPa	0.00112 1/K
228.15 K, 590 kPa	0.00112 1/K
228.16 K, 20010 kPa	0.00104 1/K
228.16 K, 45100 kPa	0.000958 1/K
230.04 K, 590 kPa	0.00111 1/K
230.16 K, 20010 kPa	0.00105 1/K
230.17 K, 590 kPa	0.00112 1/K
230.17 K, 45100 kPa	0.000957 1/K
230.17 K, 80030 kPa	0.00086 1/K
232.14 K, 590 kPa	0.00112 1/K
232.17 K, 20010 kPa	0.00104 1/K
232.17 K, 45100 kPa	0.000959 1/K
232.18 K, 590 kPa	0.00113 1/K
232.57 K, 80030 kPa	0.000869 1/K
234.16 K, 590 kPa	0.00113 1/K
234.17 K, 20010 kPa	0.00103 1/K
234.17 K, 45100 kPa	0.000956 1/K
234.19 K, 590 kPa	0.00112 1/K
234.98 K, 80030 kPa	0.000859 1/K
236.16 K, 590 kPa	0.00112 1/K
236.17 K, 20010 kPa	0.00104 1/K
236.17 K, 45100 kPa	0.000953 1/K
236.18 K, 590 kPa	0.00112 1/K
237.42 K, 80030 kPa	0.00086 1/K
238.17 K, 590 kPa	0.00112 1/K
238.17 K, 20010 kPa	0.00103 1/K
238.17 K, 45100 kPa	0.000949 1/K
239.85 K, 80030 kPa	0.000855 1/K
240.17 K, 590 kPa	0.00112 1/K
240.17 K, 45100 kPa	0.000949 1/K
240.25 K, 20010 kPa	0.00103 1/K
242.17 K, 590 kPa	0.00112 1/K
242.17 K, 45100 kPa	0.000942 1/K
242.25 K, 20010 kPa	0.00103 1/K
242.29 K, 80030 kPa	0.000853 1/K
244.18 K, 590 kPa	0.00112 1/K
244.18 K, 45100 kPa	0.000941 1/K
244.19 K, 20010 kPa	0.00103 1/K
244.74 K, 80030 kPa	0.000851 1/K
246.19 K, 590 kPa	0.00112 1/K
246.19 K, 20010 kPa	0.00104 1/K
247.21 K, 80030 kPa	0.000847 1/K
248.17 K, 20010 kPa	0.00104 1/K
